What follows are compounds tested on p62 puncta in HeLa cells (assay: p62 puncta assay (immunocytochemistry and imaging, EVOS M7000 or Operetta CLS)). Conditions: Homo sapiens, fold change in p62 puncta levels relative to DMSO control, 24 hr.
Type: cell-based
Protocol: HeLa cells were seeded in coated 96-well plates (10,000 cells) and allowed to adhere overnight. After 24 hours of treatment with either vehicle (DMSO) or test compounds, the media was discarded, and cells were rinsed with ice-cold 1×PBS before fixation by 4% formaldehyde or paraformaldehyde for 20 min. Cells were then washed with 1×PBS and permeabilized with 0.1% Triton X-100 in PBS for 20 min and blocked with Blocking Buffer in PBS for 1 hour. The cells were incubated thereafter for 1 hour with anti-p62 primary antibody in Blocking Buffer, followed by incubation with secondary antibody for 1 hour. DAPI dye was used to visualize nuclei of fixed cells. The blocking buffer used were 5% Fetal Bovine Serum (FBS, ThermoFIsher Scientific, 10270106) and Li-cor Intercept (PBS) Blocking Buffer (Li-cor, 927-70001). The primary antibody used was mouse anti-p62 primary antibody (Novus Biologicals, H00008878-MO1). The secondary antibodies used were goat anti-mouse Alexa Fluor Plus 488 secondary antibody (Invitrogen, GOXMS) and goat anti-mouse Alexa Fluor 488 secondary antibody (Invitrogen, A-11029). The DAPI dyes used were DAPI dye (Invitrogen, 62248) and DAPI dye (Invitrogen, D1306).
For the EVOS M7000 System, cells were imaged on the EVOS M7000 microscope using a 20× air objective (Nikon, N.A 0.45). DAPI and p62 channels were illuminated with LED light cubes using integrated hard-coated filter sets for DAPI (357/447 nm) and GFP (470/525 nm) respectively. Images were analysed for p62 puncta count on the Celeste 6.0 software.
For the Operetta CLS System, cells were imaged on the Operetta CLS using a 63× water objective on the DAPI and Alexa 488 channels. Images were analysed for p62 puncta count on the Harmony 5.1 software.
HeLa cells were treated with compounds for 24 hours to evaluate the effect of these compounds on p62 puncta activity. The resulting changes in levels of p62 puncta were assessed by imaging, either on the EVOS M7000 or Operetta CLS systems as described in experimental procedures. The fold change of p62 puncta levels induced by compound treatment relative to vehicle control (DMSO) was determined and summarized in Table 10.

Row | Compound | fold induction at 5 µM
1 | OCCNCc1ccc2cc(CN3CCCCC3)oc2c1 [compound 25] | < 2
2 | OCCNCc1ccc2cc(-c3ccccc3Cl)oc2c1 [compound 72] | > 2
3 | OCCNCc1ccc2cc(-c3cccc(Cl)c3)oc2c1 [compound 73] | > 2
4 | OCCNCc1ccc2cc(-c3ccc(Cl)cc3)oc2c1 [compound 74] | > 2
5 | COc1ccc(-c2cc3ccc(CNCCO)cc3o2)cc1 [compound 76] | > 2
6 | CC(C)NCCOCc1ccc2cc(-c3ccccc3)oc2c1 [compound 77] | > 2
7 | CC(C)NCC(O)COc1ccc2cc(-c3ccccc3)oc2c1 (stereo not drawn) [compound 78] | > 2
8 | CC(C)NCCOCc1ccc2cc(CCc3ccc(F)cc3)oc2c1 [compound 79] | > 2
9 | CC(C)NCC(O)COc1ccc2cc(CCc3ccc(F)cc3)oc2c1 (stereo not drawn) [compound 80] | > 2
10 | CC(C)(C)OC(=O)NCCOCCOCCOCCNCc1ccc2cc(Cc3ccccc3)oc2c1 [compound 82, tert-butyl (1-(2-benzylbenzofuran-6-yl)-5,8,11-trioxa-2-azatridecan-13-yl)carbamate] | < 2
11 | C#CCCOCCOCCNCc1ccc2cc(CCc3ccc(F)cc3)oc2c1 [compound 83, 2-(2-(but-3-yn-1-yloxy)ethoxy)-N-((2-(4-fluorophenethyl)benzofuran-6-yl)methyl)ethan-1-amine] | > 2
12 | C#CCCOCCOCCOCCNCc1ccc2cc(CCc3ccc(F)cc3)oc2c1 [compound 84] | > 2
13 | CNCCOCCOCCNCc1ccc2cc(CCc3ccc(F)cc3)oc2c1 [compound 86] | > 2
14 | CNCCOCCOCCOCCNCc1ccc2cc(CCc3ccc(F)cc3)oc2c1 [compound 87] | > 2
15 | CC(C)(C)OC(=O)N1CCC(OCCOCCNCc2ccc3cc(CCc4ccc(F)cc4)oc3c2)CC1 [compound 90] | > 2
16 | C#CCCOCCOCCOCCNCc1ccc2cc(-c3ccccc3)oc2c1 [compound 94] | > 2
17 | COC(=O)CCOCCOCCNCc1ccc2cc(-c3ccccc3)oc2c1 [compound 95, methyl 3-(2-(2-(((2-phenylbenzofuran-6-yl)methyl)amino)ethoxy)ethoxy)propanoate] | > 2
18 | C#CCCOCCOCCOCCNCc1ccc2cc(Cc3ccc(Cl)cc3)oc2c1 [compound 96] | > 2
19 | C#CCCOCCOCCNCC(O)COc1ccc2cc(Cc3ccccc3)oc2c1 (stereo not drawn) [compound 98, 1-((2-benzylbenzofuran-6-yl)oxy)-3-((2-(2-(but-3-yn-1-yloxy)ethoxy)ethyl)amino)propan-2-ol] | > 2

Row | Compound | fold induction at 5 µM
20 | COC(=O)CCOCCNCC(O)COc1ccc2cc(Cc3ccccc3)oc2c1 (stereo not drawn) [compound 99] | < 2
21 | COCCNCc1ccc2cc(-c3ccccc3)oc2c1 [compound 105] | > 2
22 | OCCNCc1ccc2nc(-c3ccccc3)oc2c1 [compound 106] | > 2
23 | COC1CC(NCc2ccc3cc(-c4ccccc4)oc3c2)C1 (stereo not drawn) [compound 107] | < 2
24 | COC1CN(Cc2ccc3cc(-c4ccccc4)oc3c2)C1 [compound 108] | > 2
25 | CO[C@@H]1CCCN(Cc2ccc3cc(-c4ccccc4)oc3c2)C1 [compound 109] | < 2
26 | CO[C@H]1CCCN(Cc2ccc3cc(-c4ccccc4)oc3c2)C1 [compound 110] | < 2
27 | COC1CN(Cc2ccc3cc(-c4cccnc4)oc3c2)C1 [compound 112] | < 2
28 | OCCNCc1ccc2nc(-c3ccccc3)sc2c1 [compound 113] | > 2
29 | CNCCCOCCOCCNCc1ccc2cc(-c3ccccc3)oc2c1 [compound 120] | > 2
30 | CNC(=O)CCOCCOCCNCc1ccc2cc(-c3ccccc3)oc2c1 [compound 121] | < 2
31 | CC(C)(C)OC(=O)NCCOCCNCc1ccc2cc(CCc3ccc(F)cc3)oc2c1 [compound 122] | > 2
32 | CC(C)(C)OC(=O)N1CCC(COCCNCc2ccc3cc(CCc4ccc(F)cc4)oc3c2)CC1 [compound 123] | > 2
33 | CC(C)(C)OC(=O)NCCOCCOCCNCc1ccc2cc(CCc3ccc(F)cc3)oc2c1 [compound 124] | > 2
34 | CC(C)(C)OC(=O)NCCOCCOCCOCCNCc1ccc2cc(CCc3ccc(F)cc3)oc2c1 [compound 125] | > 2
35 | C#CCOCCOCCOCCNCc1ccc2cc(CCc3ccc(F)cc3)oc2c1 [compound 126] | > 2
36 | CC(C)(C)OC(=O)CCOCCOCCNCc1ccc2cc(CCc3ccc(F)cc3)oc2c1 [compound 127] | > 2
37 | CC(C)(C)OC(=O)COCCCOCCNCc1ccc2cc(CCc3ccc(F)cc3)oc2c1 [compound 128] | > 2
38 | C#CCOCCOCCNCc1ccc2cc(CCc3ccc(F)cc3)oc2c1 [compound 129] | > 2

Row | Compound | fold induction at 5 µM
39 | CC(C)(C)OC(=O)COCCNCc1ccc2cc(CCc3ccc(F)cc3)oc2c1 [compound 131] | > 2
40 | CC(C)(C)OC(=O)CCOCCNCc1ccc2cc(CCc3ccc(F)cc3)oc2c1 [compound 132] | > 2
41 | C#CCCOCCNCc1ccc2cc(CCc3ccc(F)cc3)oc2c1 [compound 133] | > 2
42 | CC(C)(C)OC(=O)c1ccc(COCCNCc2ccc3cc(CCc4ccc(F)cc4)oc3c2)cc1 [compound 134] | > 2
43 | COC(=O)c1cccc(COCCNCc2ccc3cc(CCc4ccc(F)cc4)oc3c2)c1 [compound 135] | < 2
44 | Fc1ccc(CCc2cc3ccc(CNCCOCCCCl)cc3o2)cc1 [compound 136] | > 2
45 | CC(C)(C)OC(=O)CCCCOCCNCc1ccc2cc(CCc3ccc(F)cc3)oc2c1 [compound 137] | < 2
46 | C#CCCCCCOCCNCc1ccc2cc(CCc3ccc(F)cc3)oc2c1 [compound 138] | > 2
47 | CC(C)(C)OC(=O)CCCCCCCCOCCNCc1ccc2cc(CCc3ccc(F)cc3)oc2c1 [compound 139] | < 2
48 | CC(C)(C)OC(=O)CCCCCOCCNCc1ccc2cc(CCc3ccc(F)cc3)oc2c1 [compound 140] | < 2
49 | C#CCCCCCCOCCNCc1ccc2cc(CCc3ccc(F)cc3)oc2c1 [compound 141] | > 2
50 | CCOC(=O)C1CCN(C(=O)COCCNCc2ccc3cc(CCc4ccc(F)cc4)oc3c2)CC1 [compound 142] | > 2
51 | CC(C)(C)OC(=O)CCCOCCNCc1ccc2cc(CCc3ccc(F)cc3)oc2c1 [compound 145] | < 2
52 | COC(=O)C1(COCCNCc2ccc3cc(CCc4ccc(F)cc4)oc3c2)COC1 [compound 146] | < 2
53 | CC(C)(C)OC(=O)N1CCN(CCOCCNCc2ccc3cc(CCc4ccc(F)cc4)oc3c2)CC1 [compound 147] | > 2
54 | CC(C)(C)OC(=O)NCCCCCOCCNCc1ccc2cc(CCc3ccc(F)cc3)oc2c1 [compound 148] | < 2
55 | CC(C)(C)OC(=O)NCCCCCCCCOCCNCc1ccc2cc(CCc3ccc(F)cc3)oc2c1 [compound 149] | > 2
56 | CC(C)(C)OC(=O)Nc1ccc(COCCNCc2ccc3cc(CCc4ccc(F)cc4)oc3c2)cc1 [compound 151] | > 2
57 | CC(C)(C)OC(=O)N1CCC(CCOCCNCc2ccc3cc(CCc4ccc(F)cc4)oc3c2)CC1 [compound 152] | > 2

Source: patent US20250282742A1, “BENZOFURAN DERIVATIVES FOR TARGETING AUTOPHAGY” (Automera PTE. LTD, priority 2024, published 2025)
